Experimental data as given in paper PMC7093416, “Selective USP7 inhibition elicits cancer cell killing through a p53-dependent mechanism” (Scientific Reports, 2020).
Where two headings read alike, the source gives them in different places.

Columns and labels:
full-length USP7 [1] = molecular target: T1, full-length USP7 (Homo sapiens, UniProt Q93009); assay: Ub-AMC enzymatic assay, full-length USP7, 6 h pre-incubation; type: biochemical; details: for IC50: Ub-AMC, read-out: IC50
T1 construct: The constructs encoding USP7 full length (amino acids 1–1102) and catalytic domain (208–560); inferred from Ni-NTA purification; made in house; host or cells: E. coli BL21 (DE3)
T1 sequence (Q93009 whole entry, the tested form may be a part): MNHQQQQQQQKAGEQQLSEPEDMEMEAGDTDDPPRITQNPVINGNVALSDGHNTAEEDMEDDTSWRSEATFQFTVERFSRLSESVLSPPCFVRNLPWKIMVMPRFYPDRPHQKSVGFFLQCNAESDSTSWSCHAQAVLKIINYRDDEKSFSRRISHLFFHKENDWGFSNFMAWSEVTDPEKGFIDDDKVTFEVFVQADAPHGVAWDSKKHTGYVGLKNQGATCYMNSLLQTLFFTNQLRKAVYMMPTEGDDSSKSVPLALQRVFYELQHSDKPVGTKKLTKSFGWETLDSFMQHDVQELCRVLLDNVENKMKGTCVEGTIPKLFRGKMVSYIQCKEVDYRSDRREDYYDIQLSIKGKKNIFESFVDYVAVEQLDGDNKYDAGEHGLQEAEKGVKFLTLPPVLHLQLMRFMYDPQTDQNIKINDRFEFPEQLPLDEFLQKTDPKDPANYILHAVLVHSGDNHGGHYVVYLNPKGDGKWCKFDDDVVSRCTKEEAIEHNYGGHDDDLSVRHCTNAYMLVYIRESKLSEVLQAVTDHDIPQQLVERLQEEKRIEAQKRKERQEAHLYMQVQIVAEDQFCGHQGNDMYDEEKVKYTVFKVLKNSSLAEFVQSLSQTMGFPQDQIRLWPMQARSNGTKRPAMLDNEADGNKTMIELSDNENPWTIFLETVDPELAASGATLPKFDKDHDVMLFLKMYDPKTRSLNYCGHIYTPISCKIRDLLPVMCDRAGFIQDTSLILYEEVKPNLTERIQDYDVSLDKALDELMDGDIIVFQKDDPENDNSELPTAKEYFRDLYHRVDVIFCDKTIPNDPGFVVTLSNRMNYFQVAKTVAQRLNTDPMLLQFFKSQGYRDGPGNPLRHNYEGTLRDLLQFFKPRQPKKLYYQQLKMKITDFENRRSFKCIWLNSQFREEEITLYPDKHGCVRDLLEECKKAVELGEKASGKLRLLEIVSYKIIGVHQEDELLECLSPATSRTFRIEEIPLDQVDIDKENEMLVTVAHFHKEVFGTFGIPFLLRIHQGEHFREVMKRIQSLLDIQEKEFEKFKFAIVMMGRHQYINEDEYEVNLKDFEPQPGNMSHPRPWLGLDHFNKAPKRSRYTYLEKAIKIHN
Experimental: Full length USP7 was tested for its activity in Ubiquitin-AMC assay in presence or absence of inhibitors. USP7 (5 nM) was pre-incubated for 6 hours at room temperature with different concentrations of inhibitors or DMSO as a control in 50 mM HEPES pH 7.5, 0.5 mM EDTA, 11 uM ovalbumin, and 5 mM DTT. Ubiquitin-AMC (Boston Biochem) was then added to a final concentration of 500 nM. The initial rate of the reaction was measured by collecting fluorescence data at one minute intervals over 30-minute period using a Clariostar fluorescence plate reader at excitation and emission wavelength of 345 and 445 nm respectively. The calculated initial rate values were plotted against inhibitor concentrations to determine IC50s. All the experimental data were plotted using Prism GraphPad. All assays for each compound were performed at least twice for each compound.

[2] = tested on: Ewing Sarcoma, AML, multiple myeloma and rhabdoid cell lines; assay: Cell viability (CellTiter-Glo) in individual cell line panels; type: cell-based; details: Ewing Sarcoma lines and TC32 cells, 3 days
Experimental: (§1) Cells were plated in 384-well culture-treated plates and allowed to settle overnight. After drug treament and appropriate incubation time, cell viability was assessed using the CellTiter-Glo Luminescent Cell Viability Assay (Promega). Luminescence was read on a Fluostar Omega Reader (BMG Labtech).

TC32 cells = assay: Cell viability (CellTiter-Glo) in TC32 cells expressing sgRNA (TP53-KO vs control); type: cell-based; details: 3 days, Cell Titer Glo
Experimental: as §1

USP7 catalytic domain = molecular target: T2, USP7 catalytic domain (Homo sapiens, UniProt Q93009); assay: Intact MS / CE-MS labeling of purified USP7 catalytic domain; type: binding; details: 2.5-fold molar excess compound
T2 construct: catalytic domain (208–560) used were cloned as described; inferred from Ni-NTA purification; made in house; host or cells: E. coli BL21 (DE3)
T2 sequence (Q93009 208-560): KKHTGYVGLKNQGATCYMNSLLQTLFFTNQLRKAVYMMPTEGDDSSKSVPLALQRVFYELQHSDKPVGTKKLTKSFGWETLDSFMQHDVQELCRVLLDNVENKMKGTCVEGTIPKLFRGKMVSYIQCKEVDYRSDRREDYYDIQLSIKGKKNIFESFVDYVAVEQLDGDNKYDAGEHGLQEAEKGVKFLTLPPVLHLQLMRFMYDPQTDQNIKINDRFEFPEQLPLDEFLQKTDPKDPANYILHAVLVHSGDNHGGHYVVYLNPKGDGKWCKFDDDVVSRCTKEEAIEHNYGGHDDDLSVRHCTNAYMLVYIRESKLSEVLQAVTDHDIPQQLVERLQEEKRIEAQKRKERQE
Experimental: Purified USP7 catalytic domain was diluted to 20 μM in 10 μL labeling buffer (20 mM HEPES pH 7.5, 150 mM NaCl, 1 mM TCEP) and incubated for the indicated times with 50 μM (2.5×) compound. After incubation, samples were flash frozen in liquid nitrogen and stored at −80 °C until analysis.
Intact mass analysis was performed by injecting 5 µg USP7 catalytic domain onto a self-packed reversed phase column (1/32” O.D. × 500 um I.D., 5 cm of POROS 10R2 resin). After desalting, protein was eluted with an HPLC gradient (0–100% B in 4 minutes, A = 0.2 M acetic acid in water, B = 0.2 M acetic acid in acetonitrile, flow rate ~30 µL/min) into an LTQ ion trap mass spectrometer (ThermoFisher Scientific, San Jose, CA). Mass spectra were processed using MagTran1.03b2[52].
Peptides were desalted using SP3[53], dried by vacuum centrifugation, and reconstituted in 1% formic acid/50% acetonitrile with 100 mM ammonium acetate. Peptides were then analyzed by CE-MS using a ZipChip CE system and autosampler (908 Devices, Boston, MA) interfaced to a QExactive HF mass spectrometer (ThermoFisher Scientific, San Jose, CA). Peptide solution was loaded for 30 seconds, and the mass spectrometer was operated in data dependent mode and subjected the 5 most abundant ions in each MS scan (60k resolution, 3E6 target, lock mass enabled) to MS/MS (15k resolution, 1E5 target, 100 ms max inject time). […]

MCF7 cells = assay: 3' DGE RNA-seq transcriptional profiling; type: cell-based; set-up: log2FoldChange: concentration or dose not given beside the values; details: gene ABCA12; concentration 1
Experimental: The DGE RNA sequencing was performed following the published method[39],[40] with modifications as described below. MCF7 cells were seeded in a 384 well plate at 2500 cells per well, allowed to adhere for 24 hours, then treated with two doses in triplicate of XL177A, XL177B, Nutlin-3, or DMSO. After 24 hours of treatment, an EL405x plate washer (BioTek) was used to aspirate the media and wash once with PBS. Cells were lysed in the plate with 10 µl of lysis buffer (1x Qiagen TCL, 1% BME) for 5 minutes at room temperature, then stored at −80 °C. Automated liquid handling was performed with assistance from ICCB-Longwood Screening Facility. A BRAVO Automated Liquid Handling Platform (Agilent) was used for RNA extraction as follows. The lysate was mixed and 10 µl was transferred to a 384 well PCR plate. 28 µl of homemade SPRI[66] (solid-phase reversible immobilization) beads were added to the lysate and mixed. After 5 minutes, the beads were pulled down by placing the plate on a magnet, then the beads were washed twice with 80% ethanol. Beads were air dried for 1 minute, then 20 µl of nuclease free water was added, the plate was removed from the magnet, and the beads were resuspended. After 5 minutes, the plate was placed back on the magnet to pull down the beads. The supernatant was transferred to a fresh 384 well plate. RNA quantity was checked with the Qubit Fluorometer and RNA quality was assessed using the Agilent BioAnalyzer RNA 6000 Pico Kit. The BRAVO platform was again used to transfer 5 µl of supernatant was transferred to a fresh 384 well plate with RT master mix and 1 µl of barcoded E3V6NEXT adapters for reverse transcription and template switching. The plate was incubated for 90 minutes at 42 °C, then cDNA was pooled, purified with the QIAquick PCR purification kit. The full-length cDNA was treated with Exonuclease I to remove excess primers for 30 minutes at 37 °C then amplified x5 cycles with Advantage 2 PCR Enzyme System using the SINGV6 primer. The amplified full-length cDNA was purified with Agencourt AMPure XP magnetic beads and quantitated by Qubit Fluorometer. The sequencing library was prepared using the Nextera DNA kit following the manufacturer’s instructions. Briefly, 55 ng of cDNA was tagmented for 5 minutes at 55 °C then purified using Zymo DNA Clean & Concetrator-5 column, then amplified x7 cycles and purified using a 0.9x ratio of AMPure XP magnetic beads. The library size distribution was assessed by Agilent BioAnalyzer HS DNA Kit before it was quantified by qPCR and sequenced on an Illumina NextSeq at the Biopolymers Facility at Harvard Medical School.
The bcbio-nextgen single cell RNA-seq analysis pipeline (https://bcbio-nextgen.readthedocs.io/en/latest/) was used to deconvolve the well barcodes and convert reads to counts. Any detected barcode that differed by more than one base from an expected barcode was removed. Unique reads were identified using unique molecular identifiers (UMIs) in order to remove PCR duplicates. The reads remaining after these filters were aligned to the transcriptome (GRCh38) using RapMap[67]. The R package DESeq. 2 version 1.20.0 (R version 3.5.1) was used for differential expression analysis.

full-length USP7 [3] = molecular target: T1, full-length USP7; assay: Ub-AMC time course assay for kinact / KI; type: biochemical
Experimental: To calculate the ki and kianct values for XL-9678-041, the procedure above was used, but different concentrations of inhibitor were incubated with USP7 for different time points (5 min - 3 hours) before adding Ubiquitin-AMC. To determine kobs, the time course curves were fit to the equation y = ymax(1 − exp(−kobs⋅x)). The kobs values were then plotted against the inhibitor concentrations and fit to the equation y = kinact/(1 + (ki/x)) to obtain the values for ki and kianct.
Supplementary Figure Captions
Figure S1: Full-length recombinant purified USP7 was pre-incubated with XL041 at the indicated concentrations for the indicated times, then Ub-AMC was added and fluorescence was monitored. Graphpad Prism software was used to calculate initial reaction velocity and derive KI / kinact values (bottom panel).
Figure S2: Mass spectra (left) and zero-charge mass spectra (right) of WT USP7 catalytic domain incubated for 4 hours with DMSO (top) or 2.5-fold molar excess XL058 (bottom). […]
Figure S5: MCF7 cells were transfected with the indicated pcDNA constructs for 48 hours, then treated with XL177A at the indicated concentration for 3 hours. Cells were lysed, and FLAG-USP7 target engagement was assessed with the DUB ABP HA-Ub-VS. Densitometry was performed using ImageStudio software and analyzed using Graphpad Prism. […]

CN1CCN(CCC(=O)Nc2ccc3c(=O)n(CC4CCN(C(=O)C(CCCNC(=O)c5ccc6c(Cl)c7c(nc6c5)CCCC7)Cc5ccccc5)CC4)cnc3c2)CC1 (centres unmarked) [XL024]
less potent than XL058 (full-length USP7 [1]): ~ 10 fold
less potent than XL112 (full-length USP7 [1]): ~ 1,000 fold
IC50 (full-length USP7 [1]; Table S1): 8130 nM
IC50 (full-length USP7 [1]): 8000 nM

CCc1c(-c2ccc3[nH]ncc3c2)cnc(N)c1-c1ccc(O)cc1 [GNE-6640]
selectivity for TP53-WT versus TP53-mutant or TP53-KO cells [2]: showed little selectivity
selectivity for TP53-WT versus TP53-mutant or TP53-KO cells ([2]; listed as SB1_F_057): no differential response
differential response in TC32 TP53 knock out cells (TC32 cells): no differential

CN1CCN(CCC(=O)Nc2ccc3c(=O)n(CC4(O)CCN(C(=O)C(CCCNC(=O)c5ccc6cc7c(nc6c5)CCCC7)Cc5ccccc5)CC4)cnc3c2)CC1 (centres unmarked) [XL058]
IC50 (full-length USP7 [1]): 904 nM
labeling of USP7 catalytic domain by MS (USP7 catalytic domain): unable to label

COc1ccc(C2=N[C@@H](c3ccc(Cl)cc3)[C@@H](c3ccc(Cl)cc3)N2C(=O)N2CCNC(=O)C2)c(OC(C)C)c1 [nutlin3a]
log2FoldChange (MCF7 cells): 0.9473

CN1CCN(CCC(=O)Nc2ccc3c(=O)n(CC4(O)CCN(C(=O)CCCCNC(=O)c5ccc6c(Cl)c7c(nc6c5)CCCC7)CC4)cnc3c2)CC1 [XL041]
IC50 (full-length USP7 [1]; Table S1): 152 nM
mode of inhibition (full-length USP7 [3]): irreversible mode of inhibition
kinact (full-length USP7 [3]; pre-incubation 5 min - 3 hours): 0.00373 s⁻¹

CN1CCN(CCC(=O)Nc2ccc3c(=O)n(CC4(O)CCN(C(=O)C(CCCNC(=O)c5ccc6c(Cl)c7c(nc6c5)CCCC7)Cc5ccccc5)CC4)cnc3c2)CC1 (centres unmarked) [XL112]
IC50 (full-length USP7 [1]): 5.9 nM
